Data as given in article PMC12571071, “Preventing neuropathy and improving anticancer chemotherapy with a carbazole-based compound” (Science Advances, 2025).
Read-outs that look alike come from different tables or passages of the source.

Assays:
HeLa cells = experiment: HeLa cell viability (PrestoBlue) assay, 72 h; format: cell-based, human; settings: for GI50 FK866 with carbazole/GI50 FK866 / GI50 PTX/GI50 PTX with carbazole: ratio at the highest noncytotoxic dose of carbazole analog; for GI50 FK866 with carbazole/GI50 FK866: readout of NAMPT activation; for GI50 PTX/GI50 PTX with carbazole: synergy with PTX; for fold reduction of GI50 by addition of 12 μM Carba1: drug with 12 μM Carba1 vs drug alone
Method: The human HeLa cell line was tested negative for mycoplasma contamination. HeLa cells were grown in RPMI 1640 medium supplemented with penicillin/streptomycin (100 μg/ml) and 10% FBS and maintained in a humidified incubator at 37°C and 5% CO2.
Cell viability was analyzed using the colorimetric PrestoBlue assay. Cells were seeded in 96-well microplates at a density of 7500 cells per well, allowed to adhere for 24 hours, and treated for 72 hours with either DMSO or drugs at indicated concentrations. PrestoBlue (10 μl) was then added to each well, followed by a 30-min incubation. Fluorescence was measured using a FLUOstar Optima microplate reader (excitation, 544 nm; emission, 580 nm; BMG Labtech).

PTX-induced neuropathy = experiment: Rat model of PTX-induced peripheral neuropathy (von Frey, serum NfL, IENFD); format: in vivo
Method: Control animals received an equivalent volume of the vehicle (cremophor EL:ethanol, 1:1) diluted 1:4 in 0.9% NaCl.
Carba1 was injected intraperitoneally six times (50 mg/kg) on days 0, 1, 2, 4, 7, and 9, resulting in a cumulative dose of 300 mg/kg (Fig. 2F). For each injection, Carba1 was injected intraperitoneally at 50 mg/kg on days 0, 1, 2, 4, 7, and 9, for a cumulative dose of 300 mg/kg, using a stock solution (150 mg/ml; cremophor EL:ethanol, 1:1) diluted to 50 mg/ml in 0.9% NaCl. Control animals for Carba1 received the same volume of the vehicle [cremophor EL:ethanol (1:1) diluted 1:3 in 0.9% NaCl]. […] To prevent cross-exposure through feces and urine, treatment groups were randomized by cage, with each cage housing three animals.
Tactile allodynia, a common sensory disorder reported in animal models of CIPN ([56]), was assessed using an electronic von Frey test (Bioseb) ([68]). Rats were placed in plastic compartments on a wire floor and allowed to habituate for 15 min. […] The maximum force (in grams) causing withdrawal was recorded automatically. The average of two measurements, not differing by more than 10 g, was used as the nociceptive threshold ([68]). Rats were habituated to the compartments 3 days before the first injection, and the experimenter was blinded to treatment groups.
Blood samples were collected on day 15 in vials with a clot activator, left at R.T. for up to 1 hour before centrifugation at 4100 rpm at 20°C for 10 min. Serum was then collected, aliquoted, and stored at −80°C until analysis. To reduce batch effects, serum samples were randomized on assay plates. NfL concentration was measured in the serum using commercial kits (Simple Plex Ella ProteinSimple, USA; Rat NfL Kit ProteinSimple) ([27]).
Skin samples from both hind paws were fixed in 4% PFA overnight at 4°C, followed by sucrose cryoprotection (10, 20, and 30%) at 4°C overnight. After embedding in tissue freezing medium, the samples were at −80°C. Sections (20 μm) were cut using a cryostat at −17°C, washed with PBS for 5 min, and dried. The sections were blocked in PBS/0.2% Triton X-100/1%BSA for 1 hour and then incubated overnight at R.T. with anti-PGP9.5 antibody (1:400). After washing with PBS, sections were incubated with goat anti-rabbit Alexa Fluor488 secondary antibody for 2 hours, and the nuclei were stained with DAPI. Imaging was performed by acquiring 0.5 μm Z-stacks and exposure times for DAPI and fluorescein isothiocyanate set to 600 ms. Quantification followed the method described by Lauria et al. ([69]).

adult mouse DRG neurons = experiment: Axonal degeneration index in dissociated adult mouse DRG neurons; settings: DIV 12 neurons, 72 h; Carba1 12 μM, PTX 50 nM, Cis 10 μM, Bort 100 nM
Method: After 4 days in vitro (DIV), at least 30% of medium was changed, and 10 μM AraC (cytosine β-D-arabino furanoside) was added to suppress nonneuronal growth. […] Neurons were fixed with 4% paraformaldehyde (PFA), washed with PBS, permeabilized with PBS–0.01% Triton X-100 for 15 min, and blocked with PBS–10% FBS for 1 hour before being stained overnight at 4°C with neurofilament antibody. Following PBS washes, secondary antibody (goat anti-chicken Alexa Fluor 488) was applied for 2 hours at room temperature (R.T.). Following additional PBS washes, coverslips were mounted with Fluoromount-G.
Images of random fields of dissociated adult DRG neurons, immunostained with antineurofilament or anti-TUBB3 antibodies, were captured using a 20× objective lens (Olympus IX81) and a Sensicam QE monochrome camera (Cooke Corporation). Degeneration masks were generated on the basis of the method described by Gerdts et al. ([66]). Axonal degeneration was quantified by measuring the total axonal area and fragmented axonal area in the same field, using degeneration masks as shown in fig. […] Images were processed in Fiji using global autothresholding, binarization, and the particle analyzer module to detect fragments (20 to 10,000 pixels), as previously described ([17]). The degeneration index was calculated as the ratio of fragmented axonal area to total axonal area.

[1] = system: HeLa cells xenografted in mice; experiment: HeLa tumor xenograft in nude mice; format: in vivo; settings: i.v. every 2 days, PTX 8 mg/kg, Carba1 60 mg/kg alone or with PTX
Method: Five-week-old NMRI nude mice (Janvier Labs) were implanted with 10 × 10^6 HeLa cells (200 μl in PBS) on the right flank. On day 6, the mean tumor volume was 120 ± 4 mm^3. […] Behavior and signs of pain were monitored daily. Body weight and tumor volume were measured two to three times per week using electronic calipers, with tumor volume (in cubic millimeters) calculated as length (millimeters)/2 × width^2 (square millimeters). Tumor growth inhibition was analyzed using GraphPad Prism with one-way analysis of variance (ANOVA) and Dunn’s multiple comparisons test for treatment versus vehicle. Mice were euthanized on day 20, when the vehicle group reached ethical limits. Blood samples were collected by intracardiac puncture in EDTA-coated tubes for differential blood counts and hemograms, outsourced to IDEXX BioAnalytics. For biochemical analysis, blood was collected in heparin-lithium tubes, and plasma was isolated by centrifugation and frozen at −80°C. Plasma was analyzed using MS Scan II (Melet Schloesing) and VET16 reagent rotors to measure markers of renal and hepatic function, metabolism, and nutritional and muscular status. Differential counts, hemograms, and biochemical data were analyzed with GraphPad Prism using Kruskal-Wallis test and Dunn’s multiple comparisons test.

DRG explants = experiment: Mouse embryonic 3D DRG explants: axonal degeneration and myelination (MBP/TUBB3); format: cell-based; settings: 72 h; Carba1 12 μM or PTX 500 nM
Method: Embryonic DRG 3D explants were prepared from E13.5 mouse embryos and seeded at one explant/1.9 cm^2 on acid-treated, Matrigel-coated glass coverslips ([64], [65]). Explants were cultured at 37°C under 5% CO2 and high saturated in humidity. From DIV 0 to DIV 3, cultures were maintained in C-medium supplemented with 10% FBS, 1× GlutaMAX, D-glucose (4 g/liter), 2.5S nerve growth factor (NGF; 50 ng/ml), and 1% penicillin/streptomycin. From DIV 3 to DIV 7, neurobasal medium supplemented with 1× B27, 1× GlutaMAX, D-glucose (4 g/liter), 2.5S NGF (50 ng/ml), and 1% penicillin/streptomycin was used to promote axon development. From DIV 7 onward, differentiation medium [C-medium supplemented with 5 μM forskolin, ascorbic acid (50 μg/ml), and heparin (25 μg/ml)] was used to support glial cell maturation and myelination, with medium changes occurring every 2 days.
DRGs were fixed with 10% formalin for 20 min at R.T., washed with PBS, and permeabilized for 10 min with PBS–0.1% Triton X-100. Blocking was performed using a solution of 3% bovine serum albumin (BSA), 0.1% glycine, and 5% goat preimmune serum in PBS for 2 hours at R.T. DRGs were then washed in PBS and incubated overnight at 4°C with of anti-TUBB3 (1 μg/ml) and anti-MBP (1 μg/ml). After PBS washes, secondary antibodies (goat anti-mouse Alexa Fluor 488, 1:1000, and goat anti-rabbit Alexa Fluor 647, 1:1000) were applied for 1 hour at R.T. Explants were mounted with ProLong Gold antifade reagent with 4′,6-diamidino-2-phenylindole (DAPI).
Images of random fields of DRG explants, fixed in 4% formaldehyde and immunostained for TUBB3 and MBP, were captured with consistent acquisition times across samples, using a Zeiss AxioImager M2 microscope, equipped with a Hamamatsu Orca R2 camera. Image analysis was performed using Fiji software. The images were thresholded using the default global autothreshold method. For each field, MBP^+ segments were counted and normalized to the TUBB3^+ area.

[2] = cell viability, compound alone, read-out: GI50
[3] = rat serum, day 15, outliers removed
[4] = Homo sapiens, HeLa cells, 72 h, PrestoBlue, drug applied alone, read-out: GI50, drug alone

Compound	GI50 (HeLa cells; [2])	GI50 FK866 with carbazole/GI50 FK866 (HeLa cells)	GI50 PTX/GI50 PTX with carbazole (HeLa cells)	further results
Cc1cc(-n2c(C)ccc2C)c(C)c2c1[nH]c1ccc(Br)cc12 [Compound 9]	> 25000 nM	0.99	1	
CC(=O)O[C@H]1C(=O)[C@@]2(C)[C@H]([C@H](OC(=O)c3ccccc3)[C@]3(O)C[C@H](OC(=O)[C@H](O)[C@@H](NC(=O)c4ccccc4)c4ccccc4)C(C)=C1C3(C)C)[C@]1(OC(C)=O)CO[C@@H]1C[C@@H]2O [PTX, paclitaxel, reference compound]				IENFD, mean (PTX-induced neuropathy; rat hind paw biopsies, day 15): 13.43 number/mm; IENFD, median (PTX-induced neuropathy; rat hind paw biopsies, day 15): 13.62 number/mm; NfL, mean (PTX-induced neuropathy; [3]): 96.00 pg/mL; NfL, median (PTX-induced neuropathy; [3]): 82.50 pg/mL; tactile allodynia (paw withdrawal threshold, electronic von Frey), agent alone (PTX-induced neuropathy; rat, i.p., PTX 5 mg/kg x4 or Carba1 50 mg/kg x6): developed a tactile allodynia; reduction of IENFD, agent alone (PTX-induced neuropathy; rat, vs controls): 30%; GI50 (HeLa cells; [4]): 4.2 ± 0.4 nM; axonal fragmentation / degeneration, agent alone (adult mouse DRG neurons): induced robust axonal degeneration; tumor size [1]: markedly reduced tumor size; MBP staining (axonal myelination), agent alone (DRG explants): significant reduction in MBP staining
N.N.[Cl][Pt][Cl] [Cis, cisplatin, reference compound]				GI50 (HeLa cells; HeLa cells, 72 h, PrestoBlue, drug applied alone, read-out: GI50, drug alone): 167 ± 30.8 nM
C/C(=C\c1csc(C)n1)[C@@H]1C[C@@H]2O[C@]2(C)CCC[C@H](C)[C@H](O)[C@@H](C)C(=O)C(C)(C)[C@@H](O)CC(=O)O1 [Epo-B, epothilone-B, reference compound]				fold reduction of GI50 by addition of 12 μM Carba1 (HeLa cells; HeLa cells, 72 h): 4.4 fold; GI50 (HeLa cells; [4]): 0.5 ± 0.03 nM
CC(C)C[C@H](NC(=O)[C@H](Cc1ccccc1)NC(=O)c1cnccn1)B(O)O [Bort, bortezomib, reference compound]				GI50 (HeLa cells; [4]): 35.9 ± 3.7 nM; GI50 (HeLa cells; Homo sapiens, HeLa cells, 72 h, with 12 μM Carba1, read-out: GI50, drug in combination with Carba1): 40 ± 3.3 nM; axonal fragmentation / degeneration, agent alone (adult mouse DRG neurons): induced significant axonal fragmentation
CCOC(=O)Oc1ccc2[nH]c3c(C)cc(-n4c(C)ccc4C)c(C)c3c2c1 [Compound 15]	> 25000 nM	1.1	1	
COc1cccc(NCC(F)Cn2c3ccc(Cl)cc3c3c(C)c(-n4cccc4)cc(C)c32)c1 (stereo not drawn) [Compound 16]	> 25000 nM	0.98	1.2	
Cc1cc(-n2ccc(CO)c2)c(C)c2c1[nH]c1ccc(Cl)cc12 [Compound 8]	1000 nM	1	3.8	
CC(=O)O[C@@]12CO[C@@H]1C[C@H](O)[C@@]1(C)C(=O)[C@H](O)C3=C(C)[C@@H](OC(=O)[C@H](O)[C@@H](NC(=O)OC(C)(C)C)c4ccccc4)C[C@@](O)([C@@H](OC(=O)c4ccccc4)[C@H]21)C3(C)C [DTX, docetaxel, reference compound]				fold reduction of GI50 by addition of 12 μM Carba1 (HeLa cells; HeLa cells, 72 h): 3.8 fold; GI50 (HeLa cells; [4]): 1.1 ± 0.2 nM
Cc1cc(-n2c(C)ccc2C)c(C)c2c1[nH]c1ccc(Cl)cc12 [Compound 12]	14000 nM	1.09	0.9	
Cc1cc(-n2ccc(CN(C)C)c2)c(C)c2c1[nH]c1ccc(Cl)cc12 [Compound 6]	12700 nM	1	0.8	

Now from value to molecule, other results behind:

GI50 (HeLa cells; [2])	Compound	GI50 FK866 with carbazole/GI50 FK866 (HeLa cells)	GI50 PTX/GI50 PTX with carbazole (HeLa cells)	further results
> 25000 nM	Cc1cc(-n2cccc2)c(C)c2c1[nH]c1ccc(O)cc12 [Compound 11]	1.3	1.5	
1200 nM	Cc1cc(-n2ccc(C=O)c2)c(C)c2c1[nH]c1ccc(Br)cc12 [Compound 14]	1	2.5	
> 25000 nM	CCc1cccc2c1[nH]c1c(C)cc(-n3cccc3)c(C)c12 [Compound 3]	1.5	1.5	
10300 nM	CCNCc1ccn(-c2cc(C)c3[nH]c4ccc(Cl)cc4c3c2C)c1 [Compound 7]	1	0.77	
25000 nM	CCOC(=O)Oc1ccc2[nH]c3c(C)cc(-n4cccc4)c(C)c3c2c1 [Compound 10]	1.1	1.7	
15000 nM	Cc1cc(-n2cccc2)c(C)c2c1[nH]c1cc(Cl)ccc12 [Compound 4]	0.93	1.8	
16000 nM	Cc1cc(-n2cccc2)c(C)c2c1[nH]c1ccc(Br)cc12 [Compound 2]	2	1.6	
1000 nM	Cc1cc(-n2ccc(C=O)c2)c(C)c2c1[nH]c1ccc(Cl)cc12 [Compound 13]	1	4.4	
